Holding throughout (assay): NCI-60 cell line screen, 48 h
The test system of assay [1] is SNB-19 CNS.
In assay [2] the test system is SF-268 CNS.
For assay [3], the system named is NCI-H460 lung.
The subject of assay [4] is SNB-75 CNS.
The subject of assay [5] is KM12 colon.
For assay [6], the system named is LXFL 529 NSCLC.
Assay [7] relates to MCF7 breast.

Several values for one entry are separate records, joined by “and”; a condition that tells them apart may be missing. Equal entries are not always repeated.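 Protocol summary: plate cells (96-well), add compound at 5 concentrations, incubate 48 h, interpolate endpoints linearly. GI50 is the concentration that inhibits growth by half. TGI is the concentration that stops growth completely.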

As to `NC(N)=NS(=O)(=O)c1ccc(NCCc2c3ccccc3nc3ccccc23)cc1`, the TGI in assay [1], in assay [2], in assay [3], in assay [4], in assay [5] and in assay [6] was more than 100 µM in each case.

Turning to `Clc1ccc(C(n2cc(Br)cn2)n2cc(Br)cn2)cc1`, the TGI stood at 33.4 µM in assay [2], 33.7 µM in assay [3], 31.6 µM in assay [5] and 29.5 µM in assay [6].

In the case of `O=C1CCc2c(sc3[nH]c(=S)n(Cc4ccc(Cl)cc4)c(=O)c23)C1`, the GI50 in assay [7] was 2.22 µM; in assay [1], 0.385 µM; in assay [2], 0.442 µM; in assay [3] it was 0.377 µM; in assay [4] it was 0.387 µM; in assay [5], 0.361 µM. Moreover, the TGI in assay [7] is more than 38.6 µM; in assay [1], more than 100 µM; in assay [2], more than 100 µM; in assay [3], 3.7 µM; in assay [4], more than 81.4 µM; in assay [5] it was 1.68 µM.

In the case of `CC1OC(n2cc(F)c(=O)[nH]c2=O)C=CC1=O` (stereo not given), the TGI in assay [1] stood at 34.8 µM; in assay [2], 38.7 µM; in assay [3], 56.8 µM; in assay [4] it was 32.5 µM; in assay [5] it was 31.5 µM; in assay [6], 31.2 µM.

For `CSc1nc(SC)c2c(CO)c(Br)n(Cc3ccccc3)c2n1`, the TGI in assay [7] is more than 100 µM; in assay [1] it was 84.3 µM; in assay [2], 33.7 µM; in assay [3] it was 30.5 µM; in assay [4], 29.9 µM; in assay [5], more than 100 µM.

`O=Cc1c(O)c(C(=O)Nc2ccc3[nH]c(=O)[nH]c3c2)cc2ccccc12`: the TGI in assay [1], in assay [2], in assay [3], in assay [4], in assay [5] and in assay [6] was more than 100 µM in each case.

Regarding `O=C1C[C@@H]2/C(=C(O)\C=C\c3ccccc3)C(=O)C=C[C@@H]2O1`, the GI50 is 0.83 µM in assay [7]; 9.03 µM in assay [1]; 2.09 µM in assay [2]; 2.23 µM in assay [3]; 2.07 µM in assay [4]; 0.505 µM in assay [5]. Besides, the TGI in assay [7] is 13.5 µM; in assay [1], 22.6 µM; in assay [2] it was 6.14 µM; in assay [3], 7.18 µM; in assay [4], 5.78 µM; in assay [5], 1.82 µM.

For `O=C1c2ccccc2S(=O)(=O)c2cc(-c3nn[nH]n3)ccc21`, the TGI in assay [7], in assay [1], in assay [2], in assay [3], in assay [4] and in assay [5] was more than 100 µM throughout.

Take `COc1ccc(-c2ccc(-c3ccc(C(=N)N)o3)o2)cc1`: the GI50 in assay [7] was 0.325 µM; in assay [1] it was 1.99 µM; in assay [2], 2.04 µM; in assay [3], 1.17 µM; in assay [4], 1.47 µM; in assay [5], 0.585 µM. Moreover, the TGI stood at 1.57 µM in assay [7]; 11.3 µM in assay [1]; 7.22 µM in assay [2]; 3.28 µM in assay [3]; 6.81 µM in assay [4]; 6.73 µM in assay [5].

Regarding `O=c1c2cc(Cl)ccc2sc2cccc(Cl)c12`, the TGI in assay [1], in assay [2], in assay [3], in assay [5] and in assay [6] was more than 100 µM each time.

For `COc1cc(Nc2ncc(F)c(Nc3ccc4c(n3)N(COP(=O)(O)O)C(=O)C(C)(C)O4)n2)cc(OC)c1OC`, the GI50 is 3.02 µM and 3.32 µM in assay [7]; 2.68 µM and 2.84 µM in assay [1]; 1.45 µM and 1.04 µM in assay [2]; 3.59 µM and 3.45 µM in assay [3]; 0.319 µM in assay [4]; 0.498 µM and 0.409 µM in assay [5]. Further, the TGI is 22.6 µM and > 10 µM in assay [7]; 21.3 µM and > 10 µM in assay [1]; 5.22 µM and 3.73 µM in assay [2]; more than 100 µM in assay [3]; 1.52 µM in assay [4]; 15.4 µM and > 10 µM in assay [5].

Turning to `CCN(CC)c1ccc(C(=O)c2ccc(N(CC)CC)cc2)cc1`, the GI50 in assay [7] was 0.416 µM; in assay [1], 2.47 µM; in assay [2] it was 0.666 µM; in assay [3], 0.372 µM; in assay [4], 0.458 µM; in assay [5] it was 0.349 µM. The TGI in assay [7] is more than 74.4 µM; in assay [1], more than 100 µM; in assay [2], more than 35.9 µM; in assay [3], 1.99 µM; in assay [4], more than 83.6 µM; in assay [5], 8.89 µM.

Regarding `COC(=O)[C@@H](C)C[C@H](Cc1ccccc1)NC(=O)c1csc([C@@H](C[C@H](C(C)C)N(C)C(=O)[C@@H](NC(=O)[C@H]2CCCCN2C)C2CC2)OC(C)=O)n1`, the TGI in assay [7], in assay [1], in assay [2], in assay [3], in assay [4] and in assay [5] was more than 16.5 µM throughout. Also, the GI50 is 0.000552 µM and 0.00165 µM in assay [1]; 0.000594 µM and 0.00165 µM in assay [2]; 0.000362 µM and 0.00165 µM in assay [3]; 0.000383 µM and 0.00165 µM in assay [4]; 0.000317 µM and 0.00165 µM in assay [5].

With `Cc1cccc(C)c1NC(=O)C(=O)Nn1c(NN)nc2ccccc2c1=O`, the TGI in assay [1], in assay [2], in assay [3], in assay [4], in assay [5] and in assay [6] was more than 100 µM in each case.

Regarding `O=C(O)C1CC(O)CN1` (stereo not given), the TGI in assay [7], in assay [1], in assay [2], in assay [3], in assay [4] and in assay [5] was more than 100 µM throughout.

With `Cc1cnc(C(=O)NNc2nc3sc4c(c3c(=O)n2C)C(C)CCC4)cn1` (stereo not given), the GI50 in assay [7] is 0.29 µM; in assay [1], 0.425 µM; in assay [2] it was 0.28 µM; in assay [3], 0.194 µM; in assay [4], 0.56 µM; in assay [5], 0.362 µM. Further, the TGI in assay [7] is 1.7 µM; in assay [1], 5.45 µM; in assay [2] it was 6.65 µM; in assay [3], 2.02 µM; in assay [4], 5.78 µM; in assay [5] it was 2.16 µM.

For `O=C1C(Cl)=C(NCc2ccco2)C(=O)c2ccccc21`, the GI50 in assay [7] is 2.39 µM; in assay [1] it was 24.3 µM; in assay [2] it was 22.5 µM; in assay [3], 4.78 µM; in assay [4], 2.25 µM; in assay [5] it was 8.67 µM. The TGI was more than 27.9 µM in assay [7]; more than 100 µM in assay [1]; 81.9 µM in assay [2]; more than 100 µM in assay [3]; 7.53 µM in assay [4]; more than 100 µM in assay [5].

As for `COc1cc2c(cc1OC)/C(=C\c1ccccc1N)C(=O)OC2`, the TGI in assay [1] came out at 32.5 µM; in assay [2], 75.4 µM; in assay [3], 33.5 µM; in assay [4] it was 24.9 µM; in assay [5] it was 31.3 µM; in assay [6] it was 17.7 µM.

Turning to `O=C1C(=Cc2c(O)cc(O)cc2O)C(=O)c2ccccc21`, the TGI in assay [1] is more than 56.9 µM; in assay [2], more than 63.1 µM; in assay [3], more than 67.7 µM; in assay [4], more than 59.7 µM; in assay [5], more than 51.4 µM; in assay [6] it was more than 57.5 µM.

`CCNC(=O)O[C@H]1CN[C@H](C#Cc2cc3ncnc(Nc4ccc(OCc5cccc(F)c5)c(Cl)c4)c3s2)C1`: the GI50 in assay [7] was 8.95 µM; in assay [1] it was 16.2 µM; in assay [2], 6 µM; in assay [3], 6.84 µM; in assay [4], 4.76 µM; in assay [5], 6.59 µM. Moreover, the TGI was more than 25 µM in assay [7]; more than 25 µM in assay [1]; more than 25 µM in assay [2]; more than 25 µM in assay [3]; more than 25 µM in assay [4]; more than 23.1 µM in assay [5].

Take `O=C1C(=O)c2cccnc2-c2ncccc21`: the GI50 was 0.232 µM in assay [7]; 0.236 µM in assay [1]; 0.224 µM in assay [2]; 0.0678 µM in assay [3]; 0.123 µM in assay [4]; 0.409 µM in assay [5]. Besides, the TGI in assay [7] is 0.554 µM; in assay [1], 1.1 µM; in assay [2], 1.01 µM; in assay [3] it was 0.774 µM; in assay [4], 1.4 µM; in assay [5] it was 1.59 µM.

For the compound `COc1cc(C2CC(c3ccc(Nc4ccnc5cc(Cl)ccc45)cc3)=NN2c2ccc(Cl)cc2)cc(OC)c1OC` (stereo not given), the GI50 in assay [7] is 0.86 µM; in assay [1], 4.91 µM; in assay [2] it was 5.49 µM; in assay [3] it was 3.16 µM; in assay [4] it was 1.11 µM; in assay [5], 1.67 µM. The TGI is more than 100 µM in assay [7]; more than 100 µM in assay [1]; more than 100 µM in assay [2]; more than 100 µM in assay [3]; 6.68 µM in assay [4]; more than 100 µM in assay [5].

On to `C=C1CC2(OC1=O)C(=O)Nc1ccccc12` (stereo not given), for which the GI50 was 2.14 µM in assay [7]; 32.9 µM in assay [1]; 6.72 µM in assay [2]; 6.48 µM in assay [3]; 11 µM in assay [4]; 10.4 µM in assay [5]. Further, the TGI in assay [7] is 6.17 µM; in assay [1], more than 100 µM; in assay [2] it was 26 µM; in assay [3], 24.7 µM; in assay [4] it was 28.1 µM; in assay [5], 27.2 µM.

`CC(C)=CC1=C2C3=C(C(=O)C4(O)Oc5c(C)c6c7c(c5OC24C)[C@@H](C)CC[C@@H]7[C@@H](C)C[C@H]6C=C(C)C)C(C)CCC3C(C)C1` (stereo not given in full): the GI50 in assay [7], in assay [1], in assay [2], in assay [3], in assay [4] and in assay [5] was more than 100 µM throughout. Further, the TGI in assay [7], in assay [1], in assay [2], in assay [3], in assay [4] and in assay [5] was more than 100 µM throughout.

For `O=C(c1ccccc1)c1cn(/N=C\c2ccccc2)c(=O)nc1-c1ccccc1`, the TGI in assay [1], in assay [2], in assay [3], in assay [4], in assay [5] and in assay [6] was more than 100 µM throughout.

In the case of `COc1cccc(/C=N/C(/N=C/c2cccc(OC)c2O)c2cccc(OC)c2O)c1O`, the TGI in assay [7] was 62.8 µM; in assay [1] it was more than 100 µM; in assay [2], 42.5 µM; in assay [3], 59.9 µM; in assay [4], 48.1 µM; in assay [5], 76.7 µM.

Take `Cc1cn(-c2cc(NC(=O)c3ccc(C)c(Nc4nccc(-c5cccnc5)n4)c3)cc(C(F)(F)F)c2)cn1`: the GI50 in assay [7] is 2.49 µM and 2.35 µM; in assay [1] it was > 10 µM and 13.1 µM; in assay [2], 5.78 µM and 3.45 µM; in assay [3], 3.31 µM and 2.33 µM; in assay [4] it was 8.04 µM and 3.47 µM; in assay [5] it was 3.81 µM and 2.72 µM. For the same compound, the TGI was 7.39 µM and 7.55 µM in assay [7]; > 10 µM and 32.7 µM in assay [1]; > 10 µM and 15.2 µM in assay [2]; > 10 µM and 10.7 µM in assay [3]; > 10 µM and 11.5 µM in assay [4]; > 10 µM and 9.49 µM in assay [5].

For `O=C1c2ccccc2-c2c1c1ccccc1c(=O)n2CCCn1ccnc1`, the GI50 in assay [7] is 0.902 µM; in assay [1] it was 2.11 µM; in assay [2], 3.64 µM; in assay [3], 1.17 µM; in assay [4], 5.82 µM; in assay [5], 1.94 µM. Further, the TGI in assay [7] is more than 100 µM; in assay [1] it was more than 100 µM; in assay [2] it was more than 100 µM; in assay [3], 10.4 µM; in assay [4], 93.4 µM; in assay [5] it was 5.95 µM.

Consider `CN(Cc1cc(C(C)(C)C)cc(Br)c1O)Cc1cc(C(C)(C)C)cc(Br)c1O`, for which the TGI amounted to 10.7 µM in assay [7]; 19.3 µM in assay [1]; 11.2 µM in assay [2]; 4.72 µM in assay [3]; 13 µM in assay [4]; 12.9 µM in assay [5].

The record behind these values is PubChem BioAssay (NCI).
